Literature values as cited in patent US20040258741A1, “Percutaneous absorption preparations” (priority 2001, published 2004).
Structures can show the parent of a compound that is named as a salt.

Experiments:
[1] = molecular target: T1, AChE (Homo sapiens, UniProt P22303); details: in vitro
[2] = system: intracranial ACh; details: in vivo
[3] = molecular target: T1, AChE

T1 sequence (P22303 32-614): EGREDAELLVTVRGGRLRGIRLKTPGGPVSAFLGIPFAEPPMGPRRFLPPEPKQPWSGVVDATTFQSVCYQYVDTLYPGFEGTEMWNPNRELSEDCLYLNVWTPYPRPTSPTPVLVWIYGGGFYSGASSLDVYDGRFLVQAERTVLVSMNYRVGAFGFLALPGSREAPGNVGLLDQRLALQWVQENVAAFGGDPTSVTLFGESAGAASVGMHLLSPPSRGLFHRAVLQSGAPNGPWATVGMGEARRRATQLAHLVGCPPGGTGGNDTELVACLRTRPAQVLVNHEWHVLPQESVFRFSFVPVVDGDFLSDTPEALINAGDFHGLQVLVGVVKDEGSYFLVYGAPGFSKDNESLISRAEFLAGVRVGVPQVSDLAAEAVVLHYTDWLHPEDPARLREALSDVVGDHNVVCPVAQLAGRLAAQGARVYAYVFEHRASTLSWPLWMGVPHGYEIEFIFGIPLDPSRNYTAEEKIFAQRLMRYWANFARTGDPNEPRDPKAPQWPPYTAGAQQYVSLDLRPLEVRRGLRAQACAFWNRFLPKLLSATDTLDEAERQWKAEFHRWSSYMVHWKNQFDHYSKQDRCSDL

## O=C(O)/C=C\C(=O)O.O=C1Cc2cc3c(CCC4CCN(Cc5ccccc5)CC4)noc3cc2N1 [Icopezil, 5,7-dihydro-3-[2-[1-(phenylmethyl)-4-piperidinyl]ethyl]-6H-pyrrolo-[4,5-f]-1,2-benzisoxazol-6-one maleate]
[1]
  AChE selectivity compared with tacrine: higher AChE selectivity than the existing AChE inhibitor tacrine
[2]
  intracranial ACh: clearly increases intracranial ACh in vivo

## COc1cc2c(cc1OC)C(=O)C(F)(CC1CCN(Cc3cccc(F)c3)CC1)C2 (stereo not drawn) [ER-127528, 4-[(5,6-dimethoxy-2-fluoro-1-indanon)-2-yl]methyl-1-(3-fluorobenzyl)piperidine hydrochloride]
[3]
  in vitro AChE inhibition action compared with Donepezil: stronger in vitro AChE inhibition action than Donepezil
